Consider two compounds from publication PMC11672299, “Conjugation of Polycationic Peptides Extends the Efficacy Spectrum of β‐Lactam Antibiotics” (Advanced Science, 2024).

Type in all cases: cell-based
One experiment concerns B. subtilis DSM 10. The experiment in a line: Time‐kill assay. The conditions noted are these: for killing mechanism (time‐kill kinetics, CFU mL^−1): 50 or 100 µM, over 24 h. As to the method: For determination of time‐kill kinetics of the β‐lactam–peptide conjugates and their parent β‐lactams, 14 mL of cation‐adjusted MHB II medium was inoculated with an B. subtilis DSM 10 overnight culture to obtain an OD600 of 0.5, corresponding to ≈10^8 CFU mL^−1. To this exponentially growing culture, 50 or 100 µM of each of the antibiotics was added except for a negative control culture which was treated with only water. The bacterial cultures were incubated at 30 °C and 200 rpm and the OD600 was measured on 1 mL aliquots taken at 0, 10, 30, 45, 60, 90, 120, 240, 360, 480 and 1440 min. Additionally, at the same time points, 15 µL of serial tenfold dilutions of the bacterial suspension were plated onto MHB II agar plates. The agar plates were incubated overnight at 30 °C. The next day, bacterial colonies were counted and the CFU mL^−1 were calculated (limit of detection: 10^1.8 CFU mL^−1). For each antibiotic the assay was performed in triplicate (three biological replicates).

The test system of experiment [1] is A. pittii Tü21‐041 (clinical isolate). The experiment in a line: microbe, parasite or virus in culture. The conditions noted are these: Acinetobacter pittii; A. pittii Tü21‐041; median (n = 3); read-out: MIC. Summed up: (§1)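 Twofold dilutions in cation-adjusted MHB II, inoculum 5 × 10^5 CFU mL^−1. Combination tests used clavulanic acid at 2 mg L^−1 or avibactam at 4 mg L^−1, fixed per EUCAST.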

Experiment [2] relates to C. freundii Tü21‐052 (clinical isolate). The experiment in a line: microbe, parasite or virus in culture. The conditions noted are these: Citrobacter freundii; C. freundii Tü21‐052; median (n = 3); read-out: MIC. Summed up:
as §1

Experiment [3] concerns K. pneumoniae 0 6841/Nr.45 (Oxa48). The experiment in a line: microbe, parasite or virus in culture. The note with it: Klebsiella pneumoniae, 20 h; K. pneumoniae 06841/Nr.45 (Oxa48); combinations: avibactam fixed 4 mg L^−1, clavulanic acid 2 mg L^−1; median (n = 3). Summed up:
as §1

For experiment [4], the system named is K. pneumoniae ATCC 700 603 (SHV‐18). Put plainly: microbe, parasite or virus in culture. The conditions noted are these: Klebsiella pneumoniae, 20 h; K. pneumoniae ATCC 700603 (SHV‐18); combinations: avibactam fixed 4 mg L^−1, clavulanic acid 2 mg L^−1; median (n = 3). Summed up:
as §1

In experiment [5] the test system is A. baumannii SC300007 (Oxa23). The experiment in a line: microbe, parasite or virus in culture. The note with it: Acinetobacter baumannii, 20 h, combinations: avibactam fixed 4 mg L^−1, clavulanic acid 2 mg L^−1, median (n = 3). Summed up:
as §1

Experiment [6] deals with K. pneumoniae BL809453 (KPC). Put plainly: microbe, parasite or virus in culture. The note with it: Klebsiella pneumoniae, 20 h, combinations: avibactam fixed 4 mg L^−1, clavulanic acid 2 mg L^−1, median (n = 3). The method in brief: as §1
The next experiment concerns E. coli ATCC 25 922 (–). The experiment in a line: microbe, parasite or virus in culture. The conditions noted are these: Escherichia coli, 20 h; E. coli ATCC 25922 (no β‐lactamase); combinations: avibactam fixed 4 mg L^−1, clavulanic acid 2 mg L^−1; median (n = 3). The method in brief: as §1
Experiment [7] relates to E. coli Tü21‐031 (Oxa244, ESBL). Put plainly: microbe, parasite or virus in culture. The note with it: Escherichia coli, combinations: avibactam fixed 4 mg L^−1, median (n = 3). Summed up:
as §1

In experiment [8] the test system is CTZ‐resistant C. freundii (n = 3). The conditions noted are these: 20 h. As to the method:
(§2) The minimum inhibitory concentration (MIC) of the β‐lactam–peptide conjugates was determined by broth microdilution as previously described.^[ [17] ^] Briefly, in cation‐adjusted MHB II medium, a twofold serial dilution of the compounds was prepared in 96‐well round‐bottom polystyrene or polypropylene microtiter plates with each well containing 50 µL. The plates were inoculated with 50 µL bacterial suspension and the final inoculum, in a total volume of 100 µL, contained 5 × 10^5 CFU mL^−1. The microplates were incubated for 20 h at 37 ± 1 °C. The lowest concentration preventing visible bacterial growth was considered the MIC value. For susceptibility testing of combinations of β‐lactamase‐inhibitors with either a β‐lactam antibiotic or a β‐lactam–peptide conjugate, fixed concentrations of the inhibitors according to the EUCAST (European Committee on Antimicrobial Susceptibility Testing) guidelines (clavulanic acid = 2 mg L^−1, avibactam = 4 mg L^−1) were used.

Experiment [9] relates to CTZ‐resistant A. baumannii (n = 4). As to the method:
as §2

Experiment [10] concerns E. casseliflavus (ATCC 700 327). The experiment in a line: Spontaneous resistance rate. The note with it: E. casseliflavus ATCC 700 327, agar with 16 µg mL^−1 CTZ‐R6. As to the method:
The rate of spontaneous resistance of E. casseliflavus (ATCC 700 327) against CTZ‐R6 was investigated as previously described.^[ [33] ^] A bacterial suspension of ATCC 700 327 was adjusted to an OD600 of 1 with 0.9% NaCl, corresponding to a theoretical concentration of 2 × 10^8 CFU mL^−1. 250 µL of the suspension were plated on 10 cation‐adjusted MHB II agar plates containing 16 µg mL^−1 CTZ‐R6 and incubated at 37 °C for 18 h. As concentration control, the bacterial inoculum (OD600 = 1) was diluted and plated on antibiotic‐free cation adjusted MHB II agar plates and incubated at 37 °C for 18 h. The number of colonies on both types of plates was counted and the spontaneous resistance rate was calculated accordingly: (2) SpontaneousResistanceRate=#coloniesonantibioticplates/#coloniesoncontrolplatexdilutionfactorx2.5

For the compound `CC(C)(O/N=C(\C(=O)N[C@@H]1C(=O)N2C(C(=O)[O-])=C(C[n+]3ccccc3)CS[C@H]12)c1csc(N)n1)C(=O)O` [CTZ, ceftazidime, reference compound], in the experiment with B. subtilis DSM 10, the “killing mechanism (time‐kill kinetics, CFU mL^−1)” value is “time‐dependent killing mechanism”. Further, the MIC in [1] is 4 µg/mL; in experiment [2] it was 0.25 µg/mL; in [3], > 64 µg/mL; in experiment [4], 64 µg/mL; in experiment [5], > 64 µg/mL; in experiment [6], > 64 µg/mL. In addition, the MIC in the experiment with E. coli ATCC 25 922 (–) was 0.25 µg/mL; in experiment [7], 32 µg/mL.
`CC(C)(O/N=C(\C(=O)N[C@@H]1C(=O)N2C(C(=O)[O-])=C(C[n+]3ccccc3)CS[C@H]12)c1csc(N)n1)C(=O)NCCCCCCN1C(=O)CC(SC[C@H](NC(=O)[C@H](CCCNC(=N)N)NC(=O)[C@H](CCCNC(=N)N)NC(=O)[C@H](CCCNC(=N)N)NC(=O)[C@H](CCCNC(=N)N)NC(=O)[C@H](CCCNC(=N)N)NC(=O)[C@@H](N)CCCNC(=N)N)C(N)=O)C1=O` (stereo partly drawn) [CTZ-R6]: the “drop in CFU (to the detection limit)” value in the experiment on B. subtilis DSM 10 (100 µM, after 6 h) worked out at 6 log units. Besides, in the experiment with B. subtilis DSM 10, the “killing mechanism (time‐kill kinetics, CFU mL^−1)” value is “concentration‐dependent killing mechanism”. For the same compound, the MIC range in experiment [8] fell in the range of 0.5 to 64 µg/mL; in experiment [9] (CTZ‐resistant (n = 4, 20 h)), 4 to 16 µg/mL. In addition, the “increase in antimicrobial activity versus CTZ” value in experiment [9] (CTZ‐resistant A. baumannii) was ~16 fold. In addition, the spontaneous resistance rate in experiment [10] was < 2.7 × 10^−9.
